Test results as given in patent publication US6969590B2, “Use of a polypeptide for treatment of pruritus in animals” (Zengen, Inc., priority 2001, dated 2005).
Entries after “also recorded” stand apart in the source; their conditions may differ.

How the values were obtained:
C. albicans [1] = experiment: C. albicans colony forming units (candidacidal activity); type: cell-based
Method: C. albicans (1×10^6/ml in HBSS) was incubated in the presence or absence or α-MSH (1-13) or α-MSH (11-13) at concentrations in the range of 10^−15 M to 10^−6 M for 2 hours at 37° C. Cells were then washed in cold distilled water and diluted with HBSS to a concentration of 100 organisms/ml. One-ml aliquots were dispensed on blood agar plates and incubated for 48 hours at 37° C. Organism viability was estimated from the number of colonies formed. In subsequent experiments using familiar procedures we compared activity of α-MSH (4-10), α-MSH (6-13), α-MSH (11-13), ACTH (1-39), (18-39) and fluconazole, the latter an established antifungal agent. Melanocortin peptides and fluconazole were tested in concentrations of 10^−6 M to 10^−4 M. There were at least six replicates for each concentration of peptide.

C. albicans [2] = experiment: Horse serum-induced germ tube formation of C. albicans; type: cell-based; details: 10^−6M, 60 minutes at 37° C.
Method: C. albicans from stationary phase cultures were washed twice with distilled water and suspended in HBSS to a final concentration of 2×10^6/ml. Hyphal growth was induced by addition of 10% inactivated horse serum (GIBCO/BRL, Great Britain) to yeast incubated for 45 minutes at 37° C. with continuous shaking. Horse serum was removed by washing cells twice with HBSS and incubation was continued for 60 minutes at 37° C. in the presence of α-MSH (1-13), α-MSH (6-13) or α-MSH (11-13) at a concentration of 10^−6M with continuous shaking. The percentage of filamentous cells was evaluated under a light microscope with the aid of hemocytometer. Experiments were run in triplicate and at least 200 cells were scored. Photomicrographs were taken with an MC100 camera attached to an Axioskop Zeiss microscope.

TNF-α = TNF-α production by activated N9 microglia; type: cell-based, murine; details: microglia stimulated with LPS+IFN-γ for 24 hr, micromolar concentrations
Method: The N9 clone of murine microglial cells was obtained by immortalization of embryonic brain cultures with the 3RV retrovirus carrying an activated v-myconcogene. N9 cells were cultured in T-75-cm^2 culture flasks (Corning, Cambridge, Mass.) and maintained at 37° C. in a humidified incubator under 5% CO2 atmosphere in RPMI 1640 supplemented with 2 mM L-glutamine, 50 U/mL penicillin G, 50 μg/mL streptomycin sulfate (GIBCO-BBL, Paisley, UK), and 10% heat-inactivated fetal bovine serum (FBS, Hyclone Lab, Inc., Logan, Utah) until experiments were performed. Cells were used between the first and the tenth passage.
Sub-confluent microglial cells were washed twice with phosphate-buffered saline (PBS) and incubated with trypsin 0.025% and ethylenediaminetetraacetate (EDTA) 0.02% without calcium and magnesium for 3 min. at 37° C. to detach the cells from the culture flask. Cells were then resuspended in medium and incubated in 24-well tissue-culture plates at a concentration of 2×10^5 cells/mL for 16 h in a humidified incubator (37° C., 5% CO2). Growth medium was removed and cell monolayers were stimulated with 10 ng/mL lipopolysaccharide (LPS, from Escherichia coli 055:B5, Sigma Chemical Co., St. Louis, Mo.) plus 1 U/ml, murine IFN-γ (Sigma). To test effects of melanocortin peptides, concentrations (1, 10, 25, 50 and 100 μM) of α-MSH (1-13), α-MSH (11-13), and ACTH (1-24) (Sigma) were dissolved in medium and added to wells 10 min before treatment with LPS+IFN-γ. […] Viability of cells was assessed by trypan blue exclusion for each experimental condition; it was consistently >98%. […]
TNF-α bioactivity was measured in supernatants of cell cultures by standard cytotoxicity assay using L929 cells and recombinant human TNF-α (Sigma) as standard. […] IL-6 was measured using a commercial murine enzyme-linked immunosorbent assay (ELISA: RPN 2714, Amersham, Little Chalfont, UK).
Effects of melanocortin peptides on cytokine and NO production were evaluated by repeated measures analysis of variance followed by Dunnet's test for specific comparisons. […]

cAMP = cAMP accumulation in N9 cells; type: cell-based, murine; details: resting cells and cells incubated with LPS+IFN-γ
Method: cAMP accumulation in N9 cells was measured as previously described. Briefly, cells in six-well plates were co-incubated at 37° C. with (1) medium; (2) forskolin (100 μM); (3) LPS (10 ng/mL)+IFN-γ (1 U/mL); (4) α-MSH (1-13) or α-MSH (11-13) (1, 10, 50 μM); (5) LPS+IFN-γ and either α-MSN (1-13) or α-MSH (11-13) (10 μM). Reactions were stopped after 3 min by aspirating supernatants, immediately adding 1 mL ethanol at −20° C. and freezing. cAMP content in the ethanol-soluble fraction was measured using an enzyme immunoassay kit (Amersham).

Sequence: SYSMEHFRWGKPV [α-MSH (1-13)]
- relative potency in reducing C. albicans viability (C. albicans [1]; 10^−4M melanocortin peptides): the most effective
- effect on C. albicans colony forming units (CFU) (C. albicans [1]; 2 hours at 37° C., vs. control): greatly reduced; also recorded: significantly decreased C. albicans colony forming units; also recorded: inhibitory effect
- reduction in the number of filamentous cells (inhibition of germination) (C. albicans [2]): 28-32%
- reduction of production of TNF-α (TNF-α): 43%
- cAMP accumulation (cAMP): increased cAMP accumlation
